Values quoted from earlier work in patent US20080102137A1, “Composition and method for etiological treatment and prevention of diseases and/or complications associated with chronic glucose metabolism destabilization” (priority 2006, published 2008).

Key:
[1] = patients with panic disorders
[2] = 600 mg synthetic α-tocopherol daily for 14 days, diabetic individuals
blood platelet = blood platelet assay
fat cells = settings: test tube assay of fat cells

For O[C@H]1[C@H](O)[C@@H](O)[C@H](O)[C@@H](O)[C@H]1O [inositol], the “frequency and severity of panic attacks” value [1] is listed as “reduction in the frequency and severity of panic attacks”.
For CN(C)C(=N)N=C(N)N [Metformin], the “lowers fasting blood glucose levels” value (average) is listed as 25%, the “reduces raised plasma insulin levels” value (cases of metabolic syndrome) is listed as ≤ 30% and the “lowers postprandial blood glucose” value (in vivo) is listed as “up to 44.5%”.
For Cc1c(C)c2c(c(C)c1O)CC[C@@](C)(CCC[C@H](C)CCC[C@H](C)CCCC(C)C)O2 [α-tocopherol], the “biochemical marker of oxidative stress” value [2] is listed as “reduction in the oxidative stress marker”.
For methylhydroxy chalcone polymer [MHCP], the “formation of damaging oxygen radicals” value (blood platelet) is listed as “prevented the formation of damaging oxygen radicals” and the increased glucose metabolism (fat cells) is listed as “roughly 20 fold”.
